Assay results reported in US11945806B2, “Stabilization of amyloidogenic immunoglobulin light chains” (The Scripps Research Institute, priority 2019, dated 2024).

The compounds below were run against WIL-FL (Homo sapiens, UniProt P01721) (assay: Unlabeled LC Protease Sensitivity Assay (proteinase K)). Settings: small molecule 10 μM, WIL-FL 5 μM, proteinase K 50 nM, 2 hours at 37° C.
Type: biochemical
In short: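 Compound at 10 μM (1% DMSO) is mixed with 5 μM WIL-FL and 50 nM proteinase K in PBS pH 7.4/0.02% Pluronic F-127, 37 °C, 2 h, then quenched with PMSF. Remaining protein measured by SEC-UPLC peak area at 280 nm and expressed as fold protection relative to vehicle and no-protease controls.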
For `Cc1c(CN2CCOCC2)c(=O)oc2cc(OCC(C)c3ccccc3)ccc12` (stereo not shown) [Compound 183, 4-methyl-3-(morpholinomethyl)-7-(2-phenylpropoxy)-2H-chromen-2-one], the “Protection (fold protection of LC from protease)” value was “B (3 ≤ B < 0.6)”.
With `Cc1c(CN2CCOCC2)c(=O)oc2cc(OC(C)Cc3ccccc3)ccc12` (stereo not shown) [Compound 184, 4-methyl-3-(morpholinomethyl)-7-((1-phenylpropan-2-yl)oxy)-2H-chromen-2-one] the “Protection (fold protection of LC from protease)” value was “A (A < 0.3))”.
For `CCN(CC)c1ccc2c(C)c(CCN3C(=O)NC4(CCN(c5ncccn5)CC4)C3=O)c(=O)oc2c1` [Compound 185, 3-(2-(7-(diethylamino)-4-methyl-2-oxo-2H-chromen-3-yl)ethyl)-8-(pyrimidin-2-yl)-1,3,8-triazaspiro[4.5]decane-2,4-dione], the “Protection (fold protection of LC from protease)” value was “C (C ≥ 0.6)”.
In the case of `CCN(CC)c1ccc2c(C)c(CCN3C(=O)NC4(CCN(c5ncc(C(F)(F)F)cn5)CC4)C3=O)c(=O)oc2c1` [Compound 186, 3-(2-(7-(diethylamino)-4-methyl-2-oxo-2H-chromen-3-yl)ethyl)-8-(5-(trifluoromethyl)pyrimidin-2-yl)-1,3,8-triazaspiro[4.5]decane-2,4-dione], the “Protection (fold protection of LC from protease)” value is reported as “A (A < 0.3))”.
For `CCN(CC)c1ccc2c(C)c(CCN3C(=O)NC4(CCN(c5ccc(C(F)(F)F)cn5)CC4)C3=O)c(=O)oc2c1` [Compound 187, 3-(2-(7-(diethylamino)-4-methyl-2-oxo-2H-chromen-3-yl)ethyl)-8-(5-(trifluoromethyl)pyridin-2-yl)-1,3,8-triazaspiro[4.5]decane-2,4-dione], the “Protection (fold protection of LC from protease)” value was “A (A < 0.3))”.
With `CCN(CC)c1ccc2c(C)c(CCN3C(=O)NC4(CCN(c5ncnc6[nH]cnc56)CC4)C3=O)c(=O)oc2c1` [Compound 188, 3-(2-(7-(diethylamino)-4-methyl-2-oxo-2H-chromen-3-yl)ethyl)-8-(9H-purin-6-yl)-1,3,8-triazaspiro[4.5]decane-2,4-dione] the “Protection (fold protection of LC from protease)” value was “C (C ≥ 0.6)”.
`CCN(CC)c1ccc2c(C)c(CCN3C(=O)NC4(CCN(c5ncc(C#N)cn5)CC4)C3=O)c(=O)oc2c1` [Compound 189, 2-(3-(2-(7-(diethylamino)-4-methyl-2-oxo-2H-chromen-3-yl)ethyl)-2,4-dioxo-1,3,8-triazaspiro[4.5]decan-8-yl)pyrimidine-5-carbonitrile] was tested, and the “Protection (fold protection of LC from protease)” value was “A (A < 0.3))”.
For `CCN(CC)c1ccc2c(C)c(CCN3C(=O)NC4(CCN(c5nccc(C#N)n5)CC4)C3=O)c(=O)oc2c1` [Compound 190, 2-(3-(2-(7-(diethylamino)-4-methyl-2-oxo-2H-chromen-3-yl)ethyl)-2,4-dioxo-1,3,8-triazaspiro[4.5]decan-8-yl)pyrimidine-4-carbonitrile], the “Protection (fold protection of LC from protease)” value was “C (C ≥ 0.6)”.
In the case of `CCN(CC)c1ccc2c(C)c(CCN3C(=O)NC4(CCN(c5ccc(C#N)cn5)CC4)C3=O)c(=O)oc2c1` [Compound 191, 6-(3-(2-(7-(diethylamino)-4-methyl-2-oxo-2H-chromen-3-yl)ethyl)-2,4-dioxo-1,3,8-triazaspiro[4.5]decan-8-yl)nicotinonitrile], the “Protection (fold protection of LC from protease)” value is reported as “A (A < 0.3))”.
`CCN(CC)c1ccc2c(C)c(CCN3C(=O)NC4(CCN(c5ncnc6[nH]ncc56)CC4)C3=O)c(=O)oc2c1` [Compound 192, 3-(2-(7-(diethylamino)-4-methyl-2-oxo-2H-chromen-3-yl)ethyl)-8-(1H-pyrazolo[3,4-d]pyrimidin-4-yl)-1,3,8-triazaspiro[4.5]decane-2,4-dione] was tested, and the “Protection (fold protection of LC from protease)” value was “C (C ≥ 0.6)”.
For `CCN(CC)c1ccc2c(C)c(CCN3C(=O)NC4(CCN(c5ncccn5)C4)C3=O)c(=O)oc2c1` (stereo not shown) [Compound 194, 3-(2-(7-(diethylamino)-4-methyl-2-oxo-2H-chromen-3-yl)ethyl)-7-(pyrimidin-2-yl)-1,3,7-triazaspiro[4.4]nonane-2,4-dione], the “Protection (fold protection of LC from protease)” value was “C (C ≥ 0.6)”.
For `CCN(CC)c1ccc2c(C)c(CCN3C(=O)NC4(CCN(c5ncc(C(F)(F)F)cn5)C4)C3=O)c(=O)oc2c1` (stereo not shown) [Compound 195, 3-(2-(7-(diethylamino)-4-methyl-2-oxo-2H-chromen-3-yl)ethyl)-7-(5-(trifluoromethyl)pyrimidin-2-yl)-1,3,7-triazaspiro[4.4]nonane-2,4-dione], the “Protection (fold protection of LC from protease)” value was “A (A < 0.3))”.
In the case of `CCN(CC)c1ccc2c(C)c(CCN3C(=O)NC4(CCN(c5ccc(C(F)(F)F)cn5)C4)C3=O)c(=O)oc2c1` (stereo not shown) [Compound 196, 3-(2-(7-(diethylamino)-4-methyl-2-oxo-2H-chromen-3-yl)ethyl)-7-(5-(trifluoromethyl)pyridin-2-yl)-1,3,7-triazaspiro[4.4]nonane-2,4-dione], the “Protection (fold protection of LC from protease)” value is reported as “A (A < 0.3))”.
In the case of `CCN(CC)c1ccc2c(C)c(CCN3C(=O)NC4(CCN(c5ncnc6[nH]cnc56)C4)C3=O)c(=O)oc2c1` (stereo not shown) [Compound 197, 3-(2-(7-(diethylamino)-4-methyl-2-oxo-2H-chromen-3-yl)ethyl)-7-(9H-purin-6-yl)-1,3,7-triazaspiro[4.4]nonane-2,4-dione], the “Protection (fold protection of LC from protease)” value is reported as “C (C ≥ 0.6)”.
For `CCN(CC)c1ccc2c(C)c(CCN3C(=O)NC4(CCN(C(=O)c5ccc(C(N)=O)cc5)CC4)C3=O)c(=O)oc2c1` [Compound 198, 4-(3-(2-(7-(diethylamino)-4-methyl-2-oxo-2H-chromen-3-yl)ethyl)-2,4-dioxo-1,3,8-triazaspiro[4.5]decane-8-carbonyl)benzamide], the “Protection (fold protection of LC from protease)” value was “B (3 ≤ B < 0.6)”.
`CCN(CC)c1ccc2c(C)c(CCN3C(=O)NC4(CCN(C(=O)c5ccc(C(N)=O)cc5)C4)C3=O)c(=O)oc2c1` (stereo not shown) [Compound 199, 4-(3-(2-(7-(diethylamino)-4-methyl-2-oxo-2H-chromen-3-yl)ethyl)-2,4-dioxo-1,3,7-triazaspiro[4.4]nonane-7-carbonyl)benzamide] was tested, and the “Protection (fold protection of LC from protease)” value was “B (3 ≤ B < 0.6)”.
`CCN(CC)c1ccc2c(C)c(CCN3C(=O)NC4(CCN(S(=O)(=O)c5ccccc5)CC4)C3=O)c(=O)oc2c1` [Compound 200, 3-(2-(7-(diethylamino)-4-methyl-2-oxo-2H-chromen-3-yl)ethyl)-8-(phenylsulfonyl)-1,3,8-triazaspiro[4.5]decane-2,4-dione] was tested, and the “Protection (fold protection of LC from protease)” value was “A (A < 0.3))”.
In the case of `CCN(CC)c1ccc2c(C)c(CCN3C(=O)NC4(CCN(S(=O)(=O)c5ccccc5)C4)C3=O)c(=O)oc2c1` (stereo not shown) [Compound 201, 3-(2-(7-(diethylamino)-4-methyl-2-oxo-2H-chromen-3-yl)ethyl)-7-(phenylsulfonyl)-1,3,7-triazaspiro[4.4]nonane-2,4-dione], the “Protection (fold protection of LC from protease)” value is reported as “B (3 ≤ B < 0.6)”.
With `CCN(CC)c1ccc2c(C)c(CCN3C(=O)NC4(CCN(S(=O)(=O)c5cccnc5)C4)C3=O)c(=O)oc2c1` (stereo not shown) [Compound 202, 3-(2-(7-(diethylamino)-4-methyl-2-oxo-2H-chromen-3-yl)ethyl)-7-(pyridin-3-ylsulfonyl)-1,3,7-triazaspiro[4.4]nonane-2,4-dione] the “Protection (fold protection of LC from protease)” value was “C (C ≥ 0.6)”.
